Experimental findings from ChEMBL document CHEMBL3297661, “1-Substituted-5-[(3,5-dinitrobenzyl)sulfanyl]-1H-tetrazoles and their isosteric analogs: A new class of selective antitubercular agents active against drug-susceptible and multidrug-resistant mycobacteria” (Eur J Med Chem, 2014) are described below.

Series [1] deals with Mycobacterium tuberculosis. Briefly: Antimycobacterial activity against Mycobacterium tuberculosis CNCTC My 331/88 after 14 days by micromethod. The series is classed as functional. The conditions noted are these: CNCTC My 331/88, 336 h.
Series [2] deals with Mycobacterium avium. Nature of the series: Antimycobacterial activity against Mycobacterium avium CNCTC My 330/88 after 21 days by micromethod. The series is classed as functional. Conditions: CNCTC My 330/88, 504 h.
In series [3] the test system is Mycobacterium tuberculosis. Nature of the series: Antimycobacterial activity against Mycobacterium tuberculosis CNCTC My 331/88 after 21 days by micromethod. In kind it is functional. Conditions: CNCTC My 331/88, 504 h.
In series [4] the test system is Mycobacterium kansasii. Nature of the series: Antimycobacterial activity against Mycobacterium kansasii CNCTC My 235/80 after 7 days by micromethod. In kind it is functional. Conditions: CNCTC My 235/80, 168 h.
Series [5] deals with Mycobacterium kansasii. Nature of the series: Antimycobacterial activity against Mycobacterium kansasii CNCTC My 235/80 after 14 days by micromethod. The series is classed as functional. Conditions: CNCTC My 235/80, 336 h.
The nature of series [6]: Cytotoxicity against MDCK2 cells assessed as reduction in cell viability after 48 hrs by MTT assay. In kind it is cell-based. Conditions: Canis lupus familiaris, MDCK-II.
Series [7] in a line: Cytotoxicity against human HuH7 cells assessed as reduction in cell viability after 48 hrs by MTT assay. In kind it is cell-based. Conditions: Huh-7, 48 h.
Series [8] deals with HeLa. Briefly: Cytotoxicity against human HeLa cells assessed as reduction in cell viability after 48 hrs by MTT assay. In kind it is cell-based.
Series [9] in a line: Cytotoxicity against human HeLa cells assessed as cell viability at 30 uM after 48 hrs by MTT assay. The series is classed as cell-based. Conditions: read-out: Activity.
The subject of series [10] is HepG2. Briefly: Cytotoxicity against human HepG2 cells assessed as reduction in cell viability after 48 hrs by MTT assay. The series is classed as cell-based. Conditions: HepG2, 48 h.
In series [11] the test system is Mycobacterium kansasii. Briefly: Antimycobacterial activity against Mycobacterium kansasii CNCTC My 235/80 after 21 days by micromethod. The conditions noted are these: CNCTC My 235/80, 504 h. The series is classed as functional.
Series [12] can be described thus: Cytotoxicity against MDCK2 cells assessed as cell viability at 30 uM after 48 hrs by MTT assay. In kind it is cell-based, Canis lupus familiaris, MDCK-II. The conditions noted are these: dog, read-out: Activity.
The test system of series [13] is Mycobacterium kansasii. Briefly: Antimycobacterial activity against Mycobacterium kansasii 6509/96 after 14 days by micromethod. In kind it is functional. The conditions noted are these: 6509/96, 336 h.
Series [14] is described as follows: Cytotoxicity against human HuH7 cells assessed as cell viability at 30 uM after 48 hrs by MTT assay. Conditions: read-out: Activity. In kind it is cell-based, Huh-7.
A short description of series [15]: Cytotoxicity against human HepG2 cells assessed as cell viability at 30 uM after 48 hrs by MTT assay. Conditions: read-out: Activity. In kind it is cell-based.
Series [16] has as its system Mycobacterium avium. Briefly: Antimycobacterial activity against Mycobacterium avium CNCTC My 330/88 after 14 days by micromethod. The series is classed as functional. Conditions: CNCTC My 330/88, 336 h.
Series [17] has as its system Mycobacterium kansasii. Briefly: Antimycobacterial activity against Mycobacterium kansasii 6509/96 after 21 days by micromethod. Conditions: 6509/96, 504 h. In kind it is functional.
In series [18] the test system is Mycobacterium kansasii. Briefly: Antimycobacterial activity against Mycobacterium kansasii 6509/96 after 7 days by micromethod. In kind it is functional. Conditions: 6509/96, 168 h.

In brackets after ≈: the same amount, converted by molar mass. Bounds are passed on as bounds.

With `O=[N+]([O-])c1cc(C[S+]([O-])c2nnnn2C2CCCCC2)cc([N+](=O)[O-])c1` (stereo not given), the MIC turned out to be 8 µM (≈ 3.04 µg/mL) in series [1]; 125 µM (≈ 47.5 µg/mL) in [2]; 16 µM (≈ 6.09 µg/mL) in [3]; 4 µM (≈ 1.52 µg/mL) in series [4]; 16 µM (≈ 6.09 µg/mL) in series [5]; 62 µM (≈ 23.6 µg/mL) in series [11]. Moreover, the MIC came out at 16 µM (≈ 6.09 µg/mL) in series [13], 125 µM (≈ 47.5 µg/mL) in series [16], 32 µM (≈ 12.2 µg/mL) in [17] and 4 µM (≈ 1.52 µg/mL) in series [18]. Further, the IC50 is greater than 30 µM in [6], greater than 30 µM in series [7], greater than 30 µM in [8] and 23 µM in [10]. Besides, the viability at 48 h, 30 µM was determined as 62% in series [9], 52% in series [12], 84% in series [14] and 42% in series [15].
For the molecule `O=[N+]([O-])c1cc(COc2nnnn2-c2ccc(Cl)c(Cl)c2)cc([N+](=O)[O-])c1`, the MIC in series [1] amounted to 4 µM (≈ 1.64 µg/mL); in [2] it was 62 µM (≈ 25.5 µg/mL); in [3], 4 µM (≈ 1.64 µg/mL); in [4], 4 µM (≈ 1.64 µg/mL); in series [5], 16 µM (≈ 6.58 µg/mL); in series [11], 32 µM (≈ 13.2 µg/mL). Besides, the MIC in series [13] was 16 µM (≈ 6.58 µg/mL); in series [16], 32 µM (≈ 13.2 µg/mL); in series [17] it was 32 µM (≈ 13.2 µg/mL); in series [18] it was 4 µM (≈ 1.64 µg/mL). Moreover, the IC50 in series [6] was 22 µM; in series [7], greater than 30 µM; in series [8], greater than 30 µM; in series [10], 25 µM. In addition, the viability at 48 h, 30 µM was 69% in series [9], 22% in [12], 111% in [14] and 27% in series [15].
As for `O=[N+]([O-])c1cc(CS(=O)(=O)c2nnnn2C2CCCCC2)cc([N+](=O)[O-])c1`, the MIC in series [1] amounted to 2 µM (≈ 0.793 µg/mL); in series [2], 62 µM (≈ 24.6 µg/mL); in series [3] it was 4 µM (≈ 1.59 µg/mL); in series [4], 8 µM (≈ 3.17 µg/mL); in [5], 16 µM (≈ 6.34 µg/mL); in series [11], 16 µM (≈ 6.34 µg/mL). Further, the MIC in [13] amounted to 16 µM (≈ 6.34 µg/mL); in [16], 32 µM (≈ 12.7 µg/mL); in series [17], 16 µM (≈ 6.34 µg/mL); in series [18], 8 µM (≈ 3.17 µg/mL). In addition, the IC50 in series [6] is less than 7.5 µM; in [7], 28 µM; in series [8], 21 µM; in series [10] it was 9 µM. In addition, the viability at 48 h, 30 µM was 22% in [9], 18% in series [12], 43% in [14] and 10% in series [15].
Consider `O=[N+]([O-])c1ccc(CSc2nnnn2C2CCCCC2)c([N+](=O)[O-])c1`, for which the MIC in series [1] was found to be 8 µM (≈ 2.92 µg/mL); in series [2], 32 µM (≈ 11.7 µg/mL); in [3], 16 µM (≈ 5.83 µg/mL); in series [4], 4 µM (≈ 1.46 µg/mL); in [5], 8 µM (≈ 2.92 µg/mL); in series [11] it was 16 µM (≈ 5.83 µg/mL). In addition, the MIC in series [13] came out at 62 µM (≈ 22.6 µg/mL); in series [16], 16 µM (≈ 5.83 µg/mL); in series [17], 62 µM (≈ 22.6 µg/mL); in series [18], 16 µM (≈ 5.83 µg/mL). The IC50 was 17 µM in series [6], greater than 30 µM in series [7], greater than 30 µM in series [8] and 16 µM in series [10]. In addition, the viability at 48 h, 30 µM in series [9] was 61%; in series [12], 28%; in [14], 97%; in series [15], 47%.
As to `COc1ccc(-n2nnnc2[Se]Cc2cc([N+](=O)[O-])cc([N+](=O)[O-])c2)cc1`, the MIC in series [1] turned out to be 1 µM (≈ 0.435 µg/mL); in series [2], 32 µM (≈ 13.9 µg/mL); in series [3], 1 µM (≈ 0.435 µg/mL); in series [4] it was 1 µM (≈ 0.435 µg/mL); in [5], 2 µM (≈ 0.871 µg/mL); in series [11] it was 2 µM (≈ 0.871 µg/mL). Moreover, the minimum inhibitory concentration (MIC) is 4 µM (≈ 1.74 µg/mL) in [13], 32 µM (≈ 13.9 µg/mL) in series [16], 8 µM (≈ 3.48 µg/mL) in [17] and 2 µM (≈ 0.871 µg/mL) in [18]. Moreover, the IC50 in series [6] was less than 7.5 µM; in series [7] it was greater than 30 µM; in series [8], greater than 30 µM; in [10], 19 µM. The viability at 48 h, 30 µM in series [9] came to 78%; in series [12] it was 9%; in [14] it was 72%; in series [15], 17%.
